Columns and labels:
[1] = system: IFN-α; assay: Production of IFN-α in vivo after oral administration (murine pan-IFN-α ELISA); design: species or system C57BL/6 mice; conditions: mice
Method: (§1) Production of IFN-α and Up-Regulation of CXCL10 mRNA In Vivo
(§2) The potential of compounds to induce IFN-α production and CXCL10 mRNA up-regulation in vivo was evaluated after oral administration to C57BL/6 mice. The quantity of IFN-α in systemic circulation was followed over time, using a murine pan-IFN-α ELISA (PBL InterferonSource, ref. 42120). This ELISA recognizes all murine IFN-α subtypes. […] CXCL10 mRNA expression levels were followed by RT-qPCR.
(§3) For each compound and dose tested, 3 female C57BL/6J mice, from 6-10 weeks of age, 20-22 g of body weight were tested. Animals were given compound 1 as a single oral dose of 15.5 mg/kg as a 1.55 mg/mL solution in 20% aqueous hydroxypropyl β-cyclodextrin vehicle using a feeding tube. 0.5, 1, 2, 4 and 7 hours after dosing, systemic blood was drawn from the tail vein into K-EDTA containing tubes. Plasma was separated from blood cells by centrifugation at 1500 g, 10 min, 4° C. and stored at −80° C. prior to ELISA analysis. At each time point, the median and standard deviation over the 3 animals was calculated to evaluate the potency of the compound.

[2] = system: CXCL10 mRNA; assay: Up-regulation of CXCL10 mRNA in vivo after oral administration (RT-qPCR); design: species or system C57BL/6 mice; conditions: mice
Method: as §1, §2
as §3, with “Plasma was separated from blood cells by centrifugation at 1500 g, 10 min, 4° C. and stored at −80° C. prior to ELISA analysis.” left out
Blood was also drawn from the tail vein into micronic tubes containing 500 μl of PAXgene solution (PAXgene blood RNA tubes from PreAnalytix). […] The ΔΔCt method (for relative quantification) was used to evaluate regulation of CXCL10 expression by the compound compared to the vehicle control. At each time point, the median and standard deviation over the 3 animals was calculated to evaluate the potency of the compounds.

CCCC[C@@H](CCOC(=O)C(C)C)Nc1nc(NC(=O)C(C)C)ncc1OC [Compound 1]
observed: Induction of endogenous interferon ([1]; liver, single oral dose of 15.5 mg/kg (FIG. 1A)) | Induction of endogenous interferon ([1]; plasma, single oral dose of 15.5 mg/kg (FIG. 1B)) | upregulation of CXCL10 ([2]; blood, single oral dose of 15.5 mg/kg (FIG. 2B)) | upregulation of CXCL10 ([2]; liver, single oral dose of 15.5 mg/kg (FIG. 2A))

From patent US9790191B2, “Substituted acylaminopyrimidines as inducers of alpha interferon production” (JANSSEN SCIENCES IRELAND UC, priority 2012, dated 2017)
